Results from patent publication US9145411B2, “Substituted amino-pyrimidine derivatives” (Asana Biosciences, LLC, priority 2012, dated 2015).

Key:
[1] = test system: pAkt(T308); test: In-cell Western assay, pAkt(T308), U87MG cells; format: cell-based; settings: Homo sapiens, U-87 MG, read-out: inhibition of pAkt(T308), IC50
Protocol: (§1) Cells from human prostate cancer cell line PC3 (American Type Culture Collection (ATCC), Manassas, Va. 20108 USA) were seeded at an optimal density of 22,000 cell/well in 96-well plates containing Ham's F12K medium (90 μL) and incubated overnight. The compound dilutions were carried out in 100% DMSO followed by a dilution in the medium. Test compounds were added in serial dilutions to the wells and incubated for 2 hours. The cells were washed and fixed with 4% paraformaldehyde. After incubation at room temperature for 1 hour in the dark, blocking was done for 2 hours at room temperature. […] IC50 values were calculated using a sigmoidal dose-response curve fit in GraphPad Prism® v5 software.
(§2) In-cell Western assays for pAkt(T308) and pS6RP were also carried out in a glioma cancer cell line with a PTEN null mutation (U87MG cells), in a similar manner to the protocol described above for PC3 cells, in order to assess the ability of the compounds to inhibit the Akt-pathway in a glioma cancer cell line. […] Compounds of the invention cause inhibition of pAkt(T308), pAkt(S473) and pS6RP in U87MG, BT474 and T47D cell lines as determined by these assays.

[2] = test system: pS6RP; test: In-cell Western assay, pS6RP, U87MG cells; format: cell-based; settings: Homo sapiens, U-87 MG, read-out: inhibition of pS6RP, IC50
Protocol: as §1, §2

IC50 [1]: < 500 nM
IC50 [2]: < 500 nM
Compound: CC(=O)Nc1cccc(-c2cnc3c(N4CCOCC4)nc(-c4cnc(N)nc4)nc3c2)c1 [Example 3, N-(3-(2-(2-Aminopyrimidin-5-yl)-4-morpholinopyrido[3,2-d]pyrimidin-7-yl)-phenyl)acetamide]
